Data: patent publication US20260364215A1, “Radiopharmaceutical Compositions Targeting Ephrin Type-A Receptor 2 and Uses Thereof” (PeptiDream Inc., priority 2022, published 2026)
pKd: −log10 of the molar value. Numbered stars: 1 amine (or outer) side, 2 acyl side, 3 side chain; on linkers, the order of the positions; unused ones are H or OH. Bridge positions count the residues as written; N and C are the ends. Square brackets hold non-standard residues; d marks the D form. Side chains are listed from the residue outwards. Peptide text beside a SMILES is read from it. * marks the point of attachment. DOTA(Lu) = O=C1CN2CCN3CCN(CC(=O)*)CCN(CC2)CC(=O)[O][Lu]([O]1)[O]C(=O)C3; NH(1-deoxy-D-glucityl) = OC[C@@H](O)[C@@H](O)[C@H](O)[C@@H](O)CN*; DOTA = O=C(O)CN1CCN(CC(=O)O)CCN(CC(=O)*)CCN(CC(=O)O)CC1; Trp(1-Me,7-Cl) = Cn1cc(C[C@H](N)C(=O)O)c2cccc(Cl)c21; dPhe(3-CONH2) = NC(=O)c1cccc(C[C@@H](N)C(=O)O)c1; NMePhe(3-CN) = CN[C@@H](Cc1cccc(C#N)c1)C(=O)O; Piperazinyl(4-CH2COOH) = O=C(O)CN1CCN(*)CC1; Trp(1-Me) = Cn1cc(C[C@H](N)C(=O)O)c2ccccc21; NMemTyr = CN[C@@H](Cc1cccc(O)c1)C(=O)O; NMe3Pal = CN[C@@H](Cc1cccnc1)C(=O)O; Gly(cBu) = N[C@H](C(=O)O)C1CCC1; NMeE = CN[C@@H](CCC(=O)O)C(=O)O; Aad = N[C@@H](CCCC(=O)O)C(=O)O; NMeN = CN[C@@H](CC(N)=O)C(=O)O; CO = O=C([*:1])[*:2]

Target: T1, Recombinant Human EphA2 Fc Protein (Homo sapiens, UniProt P29317)
T1 construct: purchased Elabscience
T1 sequence (P29317 24-534 limits assumed): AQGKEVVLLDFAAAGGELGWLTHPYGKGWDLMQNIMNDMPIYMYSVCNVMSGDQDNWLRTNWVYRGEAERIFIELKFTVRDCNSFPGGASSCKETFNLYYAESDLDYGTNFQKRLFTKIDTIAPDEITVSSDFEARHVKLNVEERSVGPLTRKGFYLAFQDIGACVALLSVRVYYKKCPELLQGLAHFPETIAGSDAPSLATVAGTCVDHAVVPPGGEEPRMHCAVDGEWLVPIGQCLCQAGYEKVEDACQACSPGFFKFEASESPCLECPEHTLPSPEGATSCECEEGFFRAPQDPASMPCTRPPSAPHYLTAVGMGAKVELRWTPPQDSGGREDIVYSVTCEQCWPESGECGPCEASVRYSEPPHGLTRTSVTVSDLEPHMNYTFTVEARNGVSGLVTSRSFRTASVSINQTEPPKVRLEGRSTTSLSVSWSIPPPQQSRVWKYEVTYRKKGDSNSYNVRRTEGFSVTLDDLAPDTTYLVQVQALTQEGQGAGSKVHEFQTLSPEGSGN
Assay: Interaction analysis (kinetics, KD) of peptides and conjugates against EphA2 by SPR, Biacore T200, single-cycle kinetics (Examples B15 and B22)
Assay type: binding
Details: not given
Description: Example B15. Interaction Analysis by SPR was Performed Using Biacore (Cytiva)
SPR assay was performed using Biacore T200 (Cytiva).
The HBS-P+ buffer (10 mM HEPES (pH7.4), 150 mM NaCl, 0.05% (v/v) Surfactant P20) containing 1% DMSO was used as running buffer. Recombinant Human EphA2 Fc Protein (Fc tag, Elabscience) was captured by Human Antibody Capture kit (Cytiva). Peptide samples in DMSO were diluted with running buffer, and prepared five serial dilutions. Using these serial dilutions, kinetics of peptides against EphA2 was measured at a flow rate of […] at 25 °C. The method adopted for sample measurement was a single-cycle kinetics method. The analysis was conducted using the evaluation software 3.0 provided with Biacore T200. Kinetics fitting was done on the difference data obtained by subtracting the baseline data from sample measurement data. KD values were calculated based on the association rate constant (ka) and dissociation rate constant (kd).
Example B22: Interaction Analysis of Conjugates by SPR was Performed Using Biacore (Cytiva)
SPR assay was performed using Biacore T200 (Cytiva) according to Example B15.

Structure (SMILES)	pKd
C[C@@H](O)[C@@H]1NC(=O)[C@H](Cc2cn(C)c3ccccc23)NC(=O)[C@H](CCC(=O)NC[C@H](O)[C@@H](O)[C@H](O)[C@H](O)CO)NC(=O)[C@H](Cc2cn(C)c3c(Cl)cccc23)NC(=O)[C@H](CC(N)=O)N(C)C(=O)[C@H](CCCC(N)=O)NC(=O)[C@H](C2CCC2)NC(=O)[C@H](CC(N)=O)NC(=O)[C@H](Cc2cccnc2)N(C)C(=O)[C@@H](Cc2cccc(C(N)=O)c2)NC(=O)CSC[C@@H](C(=O)N[C@H](CCCCNC(=O)CN2CCN3CCN4CCN(CC2)CC(=O)[O][Lu]([O]C(=O)C3)[O]C(=O)C4)C(N)=O)NC(=O)[C@H](CCCC(N)=O)NC1=O [PDC_EphA2-00022593-C302] ({CH2CO}-[dPhe(3-CONH2)][NMe3Pal]N[Gly(cBu)][Aad](NH2)[NMeN][Trp(1-Me,7-Cl)]E(NH(1-deoxy-D-glucityl))[Trp(1-Me)]T[Aad](NH2)C[dK](DOTA(Lu))-NH2; thioether N-12)	> 9.00
C[C@@H](O)[C@@H]1NC(=O)[C@H](Cc2cn(C)c3ccccc23)NC(=O)[C@H](CCC(=O)NC[C@H](O)[C@@H](O)[C@H](O)[C@H](O)CO)NC(=O)[C@H](Cc2cn(C)c3c(Cl)cccc23)NC(=O)[C@H](CC(N)=O)N(C)C(=O)[C@H](CCC(=O)NC[C@H](O)[C@@H](O)[C@H](O)[C@H](O)CO)NC(=O)[C@H](C2CCC2)NC(=O)[C@H](CC(N)=O)NC(=O)[C@H](Cc2cccnc2)N(C)C(=O)[C@@H](Cc2cccc(C(N)=O)c2)NC(=O)CSC[C@@H](C(=O)N[C@H](CCCCNC(=O)CN2CCN3CCN4CCN(CC2)CC(=O)[O][Lu]([O]C(=O)C3)[O]C(=O)C4)C(N)=O)NC(=O)[C@H](CCCC(N)=O)NC1=O [PDC_EphA2-00022594-C302] ({CH2CO}-[dPhe(3-CONH2)][NMe3Pal]N[Gly(cBu)]E(NH(1-deoxy-D-glucityl))[NMeN][Trp(1-Me,7-Cl)]E(NH(1-deoxy-D-glucityl))[Trp(1-Me)]T[Aad](NH2)C[dK](DOTA(Lu))-NH2; thioether N-12)	> 9.00
C[C@@H](O)[C@@H]1NC(=O)[C@H](Cc2cn(C)c3ccccc23)NC(=O)[C@H](CCC(=O)NC[C@H](O)[C@@H](O)[C@H](O)[C@H](O)CO)NC(=O)[C@H](Cc2cn(C)c3ccccc23)NC(=O)[C@H](CC(N)=O)N(C)C(=O)[C@H](CCCC(N)=O)NC(=O)[C@H](C2CCC2)NC(=O)[C@H](CC(N)=O)NC(=O)[C@H](Cc2cccnc2)N(C)C(=O)[C@@H](Cc2cccc(C(N)=O)c2)NC(=O)CSC[C@@H](C(=O)N[C@H](CCCCNC(=O)CN2CCN3CCN4CCN(CC2)CC(=O)[O][Lu]([O]C(=O)C3)[O]C(=O)C4)C(N)=O)NC(=O)[C@H](CCCC(N)=O)NC1=O [PDC_EphA2-00022595-C302] ({CH2CO}-[dPhe(3-CONH2)][NMe3Pal]N[Gly(cBu)][Aad](NH2)[NMeN][Trp(1-Me)]E(NH(1-deoxy-D-glucityl))[Trp(1-Me)]T[Aad](NH2)C[dK](DOTA(Lu))-NH2; thioether N-12)	> 9.00
C[C@@H](O)[C@@H]1NC(=O)[C@H](Cc2cn(C)c3ccccc23)NC(=O)[C@H](CCCCNC(=O)N2CCN(CC(=O)O)CC2)NC(=O)[C@H](Cc2cn(C)c3c(Cl)cccc23)NC(=O)[C@H](CCC(=O)O)N(C)C(=O)[C@H](CCCC(N)=O)NC(=O)[C@H](C2CCC2)NC(=O)[C@H](CC(N)=O)NC(=O)[C@H](Cc2cccc(C#N)c2)N(C)C(=O)[C@@H](Cc2cccc(C(N)=O)c2)NC(=O)CSC[C@@H](C(=O)N[C@H](CCCCNC(=O)CN2CCN3CCN4CCN(CC2)CC(=O)[O][Lu]([O]C(=O)C3)[O]C(=O)C4)C(N)=O)NC(=O)[C@H](CCCC(N)=O)NC1=O [PDC_EphA2-00022612-C302] ({CH2CO}-[dPhe(3-CONH2)][NMePhe(3-CN)]N[Gly(cBu)][Aad](NH2)[NMeE][Trp(1-Me,7-Cl)]K([CO-Piperazinyl(4-CH2COOH)])[Trp(1-Me)]T[Aad](NH2)C[dK](DOTA(Lu))-NH2; thioether N-12)	> 9.00
C[C@@H](O)[C@@H]1NC(=O)[C@H](Cc2cn(C)c3ccccc23)NC(=O)[C@H](CCCCNC(=O)N2CCN(CC(=O)O)CC2)NC(=O)[C@H](Cc2cn(C)c3c(Cl)cccc23)NC(=O)[C@H](CCC(=O)O)N(C)C(=O)[C@H](CCCC(N)=O)NC(=O)[C@H](C2CCC2)NC(=O)[C@H](CC(N)=O)NC(=O)[C@H](Cc2cccc(O)c2)N(C)C(=O)[C@@H](Cc2cccc(C(N)=O)c2)NC(=O)CSC[C@@H](C(=O)N[C@H](CCCCNC(=O)CN2CCN3CCN4CCN(CC2)CC(=O)[O][Lu]([O]C(=O)C3)[O]C(=O)C4)C(N)=O)NC(=O)[C@H](CCCC(N)=O)NC1=O [PDC_EphA2-00022613-C302] ({CH2CO}-[dPhe(3-CONH2)][NMemTyr]N[Gly(cBu)][Aad](NH2)[NMeE][Trp(1-Me,7-Cl)]K([CO-Piperazinyl(4-CH2COOH)])[Trp(1-Me)]T[Aad](NH2)C[dK](DOTA(Lu))-NH2; thioether N-12)	> 9.00
C[C@@H](O)[C@@H]1NC(=O)[C@H](Cc2cn(C)c3ccccc23)NC(=O)[C@H](CCC(=O)NC[C@H](O)[C@@H](O)[C@H](O)[C@H](O)CO)NC(=O)[C@H](Cc2cn(C)c3c(Cl)cccc23)NC(=O)[C@H](CC(N)=O)N(C)C(=O)[C@H](CCCC(N)=O)NC(=O)[C@H](C2CCC2)NC(=O)[C@H](CC(N)=O)NC(=O)[C@H](Cc2cccc(C#N)c2)N(C)C(=O)[C@@H](Cc2cccc(C(N)=O)c2)NC(=O)CSC[C@@H](C(=O)N[C@H](CCCCNC(=O)CN2CCN3CCN4CCN(CC2)CC(=O)[O][Lu]([O]C(=O)C3)[O]C(=O)C4)C(N)=O)NC(=O)[C@H](CCCC(N)=O)NC1=O [PDC_EphA2-00022615-C302] ({CH2CO}-[dPhe(3-CONH2)][NMePhe(3-CN)]N[Gly(cBu)][Aad](NH2)[NMeN][Trp(1-Me,7-Cl)]E(NH(1-deoxy-D-glucityl))[Trp(1-Me)]T[Aad](NH2)C[dK](DOTA(Lu))-NH2; thioether N-12)	> 9.00

Same assay, conditions: conjugates, Biacore T200 according to Example B15, Table B16; read-out: SPR Kd

Structure (SMILES)	pKd
C[C@@H](O)[C@@H]1NC(=O)[C@H](Cc2cn(C)c3ccccc23)NC(=O)[C@H](CCC(=O)NC[C@H](O)[C@@H](O)[C@H](O)[C@H](O)CO)NC(=O)[C@H](Cc2cn(C)c3c(Cl)cccc23)NC(=O)[C@H](Cc2cccnc2)N(C)C(=O)[C@H](CCCC(N)=O)NC(=O)[C@H](C2CCC2)NC(=O)[C@H](CC(N)=O)NC(=O)[C@H](Cc2cccc(C#N)c2)N(C)C(=O)[C@@H](Cc2cccc(C(N)=O)c2)NC(=O)CSC[C@@H](C(=O)N[C@H](CCCCNC(=O)CN2CCN(CC(=O)O)CCN(CC(=O)O)CCN(CC(=O)O)CC2)C(N)=O)NC(=O)[C@H](CCCC(N)=O)NC1=O.[Lu+3] [PDC_EphA2-00022614-C302] ({CH2CO}-[dPhe(3-CONH2)][NMePhe(3-CN)]N[Gly(cBu)][Aad](NH2)[NMe3Pal][Trp(1-Me,7-Cl)]E(NH(1-deoxy-D-glucityl))[Trp(1-Me)]T[Aad](NH2)C[dK](DOTA)-NH2; thioether N-12)	> 9.00
CC(C)C[C@@H]1NC(=O)[C@H](CC(N)=O)NC(=O)[C@H](Cc2cccnc2)N(C)C(=O)[C@@H](Cc2cccc(C(N)=O)c2)NC(=O)CSC[C@@H](C(=O)N[C@H](CCCCNC(=O)CN2CCN(CC(=O)O)CCN(CC(=O)O)CCN(CC(=O)O)CC2)C(N)=O)NC(=O)[C@H](CC(N)=O)NC(=O)[C@H]([C@@H](C)O)NC(=O)[C@H](Cc2cn(C)c3ccccc23)NC(=O)[C@H](CCC(=O)NC[C@H](O)[C@@H](O)[C@H](O)[C@H](O)CO)NC(=O)[C@H](Cc2cn(C)c3c(Cl)cccc23)NC(=O)[C@H](Cc2cccnc2)N(C)C(=O)[C@H](CC(N)=O)NC1=O.[Lu+3] [PDC_EphA2-00026424-C302] ({CH2CO}-[dPhe(3-CONH2)][NMe3Pal]NLN[NMe3Pal][Trp(1-Me,7-Cl)]E(NH(1-deoxy-D-glucityl))[Trp(1-Me)]TNC[dK](DOTA)-NH2; thioether N-12)	> 9.00

Same assay, conditions: peptides, Biacore T200, 25 °C, Table B12; read-out: SPR Kd

Structure (SMILES)	pKd
C[C@@H](O)[C@@H]1NC(=O)[C@H](Cc2cn(C)c3ccccc23)NC(=O)[C@H](CCC(=O)NC[C@H](O)[C@@H](O)[C@H](O)[C@H](O)CO)NC(=O)[C@H](Cc2cn(C)c3c(Cl)cccc23)NC(=O)[C@H](Cc2cccnc2)N(C)C(=O)[C@H](CCCC(N)=O)NC(=O)[C@H](C2CCC2)NC(=O)[C@H](CC(N)=O)NC(=O)[C@H](Cc2cccnc2)N(C)C(=O)[C@@H](Cc2cccc(C(N)=O)c2)NC(=O)CSC[C@@H](C(N)=O)NC(=O)[C@H](CCCC(N)=O)NC1=O [PDC_EphA2-00019437] ({CH2CO}-[dPhe(3-CONH2)][NMe3Pal]N[Gly(cBu)][Aad](NH2)[NMe3Pal][Trp(1-Me,7-Cl)]E(NH(1-deoxy-D-glucityl))[Trp(1-Me)]T[Aad](NH2)C-NH2; thioether N-12)	> 9.00
C[C@@H](O)[C@@H]1NC(=O)[C@H](Cc2cn(C)c3ccccc23)NC(=O)[C@H](CCCCNC(=O)N2CCN(CC(=O)O)CC2)NC(=O)[C@H](Cc2cn(C)c3c(Cl)cccc23)NC(=O)[C@H](Cc2cccnc2)N(C)C(=O)[C@H](CCCC(N)=O)NC(=O)[C@H](C2CCC2)NC(=O)[C@H](CC(N)=O)NC(=O)[C@H](Cc2cccnc2)N(C)C(=O)[C@@H](Cc2cccc(C(N)=O)c2)NC(=O)CSC[C@@H](C(N)=O)NC(=O)[C@H](CCCC(N)=O)NC1=O [PDC_EphA2-00019438] ({CH2CO}-[dPhe(3-CONH2)][NMe3Pal]N[Gly(cBu)][Aad](NH2)[NMe3Pal][Trp(1-Me,7-Cl)]K([CO-Piperazinyl(4-CH2COOH)])[Trp(1-Me)]T[Aad](NH2)C-NH2; thioether N-12)	> 9.00
